Data reported in patent US12458538B2, “Functional wound healing dressings” (Ambient Biosciences, Inc., priority 2018, dated 2025).
Entries after “also recorded” stand apart in the source; their conditions may differ.

Columns and labels:
[1] = tested on: C57/BL6J mouse keratinocytes; test: Scratch wound healing assay; assay type: cell-based
Protocol: (§1) Two established cell culture models of transwell migration and a scratch wound healing model with freshly isolated C57/BL6J mouse keratinocytes were used. First, the keratinocyte cultures were established by enzymatic separation of keratinocytes from the epidermal layer of mouse skin using a dispase (for isolating epidermal later of skin) and trypsin (for isolating keratinocytes from the epidermis) under gentle agitation. The collected cells were grown in SFM-keratinocyte medium (Life Technologies).
To assess the ability of keratinocytes to migrate and heal wound gaps, scratch wounds of uniform dimensions were created across keratinocyte monolayers and the cultures were left for healing in the presence or absence of VEGF or VEGF inhibitor.

[2] = tested on: TNFα, COL1A1, DSTN, TGFβ, IL-6 and COL3A1 expression in dermal fibroblasts; test: LPS-induced scar-forming gene expression assay of dermal fibroblasts (qPCR); assay type: cell-based; details: LPS 500 ng/ml 3 days; VEGF 10 ng/ml; + control ideal storage, others exposed at 55° C. for 15 days
Protocol: Dermal fibroblasts were treated with lipopolysaccharide LPS (500 ng/ml) or vehicle PBS (No LPS control) for 3 days in the presence of vitrified VEGF (10 ng/ml) that was tested for stability against exposure to 55° C. from days 1-15.
LPS-treated cells exposed to VEGF (10 ng/ml) that underwent thermo-destabilization in the absence of vitrification served as negative control and the cells treated with VEGF that was subjected to neither vitrification nor destabilization served as positive control.
LPS-induced scar-forming gene expression profiles of dermal fibroblasts namely TNFα, COL1A1, DSTN, TGFβ, IL-6 and COL3A1 were measured by quantitative real-time PCR (qPCR), normalized to the expression of β-actin and expressed relative to the levels measured in No LPS control.

[3] = tested on: C57/BL6J mouse keratinocytes; test: Transwell migration assay; assay type: cell-based
Protocol: as §1
To assess the ability of keratinocytes to migrate under the influence of VEGF, cells were trypsinized, collected by centrifugation and added to the upper chamber of transwell inserts while the No VEGF control or VEGF or VEGF+VEGF inhibitor were added to serum free medium placed in the lower chamber. The cells were allowed to migrate under normal growth conditions. At the end of 24 h, the cells that migrated under the influence of vehicle control or VEGF in lower chamber were counted visually and expressed as percent cell migration.

[4] = Activity of vitrified insulin after reconstitution; details: reconstitution by contact with water or a body fluid

Substance | number of cells that migrated into the scratch wound area ([1]; n=3) | keratinocyte scratch wound healing ([1]; scratch wounds on confluent keratinocyte monolayers) | LPS-induced scar-forming gene expression [2] | migration of keratinocytes, transwell ([3]; 24 h, serum free medium in lower chamber) | quantification of cell numbers in the transwell migration assay ([3]; n=3) | activity after reconstitution [4]
vascular endothelial growth factor [VEGF] | dramatic induction of keratinocyte migration | promote a dynamic healing in the scratch wound area; also recorded: stimulates migration of keratinocytes | strong suppressive effect on scar forming genes | stimulates migration of keratinocytes | dramatic induction of keratinocyte migration | 
vitrified insulin: insulin vitrified by the processes described, e.g. electrospun with pullulan and trehalose |  |  |  |  |  | indistinguishable from fresh insulin
